Where a name gives a salt, the structure may show the parent alone. Read-outs that look alike come from different tables or passages of the source. Non-standard residues stand in square brackets, D forms with d. Residues, ends and D or L forms follow the SMILES beside them. Phe(4-Cl) = N[CH](Cc1ccc(Cl)cc1)C(=O)O; 2Nal = N[CH](Cc1ccc2ccccc2c1)C(=O)O; 3Pal = N[CH](Cc1cccnc1)C(=O)O
Legend:
[1] = target: T1, immobilized human serum albumin (HSA) (Homo sapiens, UniProt P02768); assay: Drug-protein binding screening by HPLC on immobilized HSA column (HSA-HPLC); conditions: 0.5 mL/min
Description: (§1) Compounds were dissolved with water or water-ethanol (with different ratio) to a concentration of 100 µg/mL. The chromatographic peak was attained on a 5 μm Chiral-HSA, 50 × 3 mm column (Chrom Tech, France), which was preceded by an on-line filter. The ChemStation for LC 3D software was used for data acquiring and handling. As a generic rapid method, an isocratic mobile phase was selected. To simulate physiology environment, a mobile phase consisting of 0.9% NaCl (pH 7.0) at a flow rate of 0.5 mL/min was used. 10 µL aliquot of analyte solution was injected to HPLC to be analyzed.

plasma proteins [2] = conditions: cited from earlier work
[3] = target: T1, immobilized human serum albumin (HSA); conditions: pH 7
Description: as §1

plasma proteins [4] = assay: in vitro
Description: (§2) PPB Experiment for Test Compounds by Ultrafiltration
(§3) The stock solution (1.0 or 2 mg/mL) of test compounds was prepared by dissolving appropriate amount of compounds in water-methanol (50 : 50, v/v) mixture. Working solution (1, 10 or 100 μg/mL) was attained by diluted stock solution with water. A different volume of the working solution was added to a 2 mL eppendorf vial and evaporated to dryness under a stream of nitrogen in the thermostatically controlled water bath maintained at 55°C for about 20 min. […] The mixture was incubated at 37°C for 30 min. […] The filtrate was analyzed for the drug content by HPLC-MS.
(§4) The concentration of the filtrate was analyzed by HPLC-MS. […] The PPB by ultrafiltration was performed in triplicates for all the compounds studied.

plasma proteins [5] = assay: PPB experiment by ultrafiltration; conditions: plasma, 10, 40, 200, 100, 2000, 100 ng/mL for A, B, C, D, E, F, 37°C 30 min, Microcon YM-30, triplicates; for fraction unbound at 30 min: plasma, PPB by ultrafiltration
Description: as §2, §3, §4

[6] = target: human serum albumin (HSA) (Homo sapiens, UniProt P02768); assay: Drug-protein binding screening by HPLC on immobilized HSA column (HSA-HPLC); conditions: human, pH 7
Description: as §1

[7] = reference compounds, Chiral-HSA 50 × 3 mm column, mobile phase 0.9% NaCl (pH 7.0), 100 µg/mL, 10 µL injected
[8] = reported PPB values of reference compounds, ref not printed
[9] = test compounds, Chiral-HSA column, 0.9% NaCl (pH 7.0)

T1 sequence (P02768 25-609): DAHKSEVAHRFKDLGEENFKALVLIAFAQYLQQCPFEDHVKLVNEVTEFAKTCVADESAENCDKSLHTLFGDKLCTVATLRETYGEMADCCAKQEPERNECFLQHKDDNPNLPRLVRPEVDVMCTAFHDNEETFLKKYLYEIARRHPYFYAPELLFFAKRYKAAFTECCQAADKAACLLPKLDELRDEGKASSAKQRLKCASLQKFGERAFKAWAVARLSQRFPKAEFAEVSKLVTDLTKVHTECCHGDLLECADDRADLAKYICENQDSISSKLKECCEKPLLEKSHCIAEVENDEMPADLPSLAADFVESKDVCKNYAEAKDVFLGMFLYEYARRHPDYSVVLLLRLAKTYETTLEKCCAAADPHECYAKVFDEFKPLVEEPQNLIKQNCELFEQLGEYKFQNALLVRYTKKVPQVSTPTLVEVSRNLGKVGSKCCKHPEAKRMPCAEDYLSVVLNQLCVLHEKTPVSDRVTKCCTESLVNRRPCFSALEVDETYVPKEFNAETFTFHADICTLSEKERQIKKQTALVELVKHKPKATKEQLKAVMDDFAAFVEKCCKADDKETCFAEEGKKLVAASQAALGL
human serum albumin (HSA), sequence (P02768 25-609): as above

Structure (SMILES)	Retention time [1, 7]	PPB from literature (plasma proteins [2]; [8])	other results
NS(=O)(=O)c1cc2c(cc1C(F)(F)F)NC(Cc1ccccc1)NS2(=O)=O (stereo not shown) [Bendroflumethiazide]	3.27 min	94.0%	
O=C(O)/C=C/c1ccc(O)c(O)c1 [Caffeic acid]	4.02 min	66.0%	
Cn1c(=O)c2c(ncn2C)n(C)c1=O [Caffeine]	1.18 min	22.5%	
Oc1cc(O)c2c(c1)O[C@H](c1ccc(O)c(O)c1)[C@@H](O)C2 [Catechuic acid]	1.94 min	20.7%	
CN(C)CCC(c1ccc(Cl)cc1)c1ccccn1 (stereo not shown) [Chlorphenamine maleate]	5.93 min	37.5 (25–50) %	
Cc1nc(C)c(C)nc1C.Cl [Chuanxiongzine hydrochloride]		44.3%	Retention time [3]: 2.23 min
C[C@@](COC12CCN(CC1)CC2)(c1ccccc1)C1CCCC1 [Comp. A]			fraction unbound (plasma proteins [4]): 0.218; Retention time ([3]; human, 100 µg/mL): 0.76 min
CC(C)[C@]12O[C@H]1[C@@H]1O[C@]13[C@]1(O[C@H]1C[C@H]1C4=C(CC[C@@]13C)C(=O)OC4)[C@@H]2O [Comp. B]			Retention time [1, 9]: 1.70 min; fraction unbound at 30 min (plasma proteins [5]): 0.784
CCN(CC)Cc1cc(-c2nc3c(Cl)nnc(OC)c3n2C)ccc1O [Comp. C]			Retention time [1, 9]: 1.75 min; fraction unbound at 100 µg/mL [6]: > 0.1; PPB by ultrafiltration (plasma proteins [5]): 51.0%; fraction unbound at 30 min (plasma proteins [5]): 0.485
Cc1cc(SCc2cnc(-c3ccc(C(F)(F)F)cc3)nc2)ccc1OCC(=O)O [Comp. E]			fraction unbound at 100 µg/mL [6]: < 0.1; PPB by ultrafiltration (plasma proteins [5]): 99.5%; fraction unbound at 30 min (plasma proteins [5]): 0.005
CC(=O)NC(Cc1ccc2ccccc2c1)C(=O)NC(Cc1ccc(Cl)cc1)C(=O)NC(Cc1ccccc1)C(=O)NC(CO)C(=O)NC(CCCNC(=N)N)C(=O)NC(Cc1cccnc1)C(=O)NC(CC(C)C)C(=O)NC(CCCNC(=N)N)C(=O)N1CCCC1C(=O)NC(C)C(N)=O (stereo not shown) [Comp. F] (Ac-[2Nal][Phe(4-Cl)]FSR[3Pal]LRPA-NH2; configuration not given here)			Retention time [1, 9]: 0.81 min; PPB by ultrafiltration (plasma proteins [5]): 97.2%
COc1cc(/C=C/C(=O)O)ccc1O [Ferulic acid]		20.6%	Retention time [3]: 1.79 min
OC(Cn1cncn1)(Cn1cncn1)c1ccc(F)cc1F [Fluconazole]	1.07 min	11.5 (11-12) %	
CC(=O)OCC(=O)[C@@]1(O)CC[C@H]2[C@@H]3CCC4=CC(=O)CC[C@]4(C)[C@H]3[C@@H](O)C[C@@]21C [Hydrocortisone acetate]	0.73 min	90.0%	
CN1CCOC(c2ccccc2)c2ccccc2C1 (stereo not shown) [Nefopam hydrochloride]	7.87 min	73.5 (71–76) %	PPB from literature (plasma proteins [2]; reported PPB values of reference compounds, ref not printed, listed as nefopam): 71–76%
CCOc1ccc(NC(C)=O)cc1 [Phenacetin]	3.19 min	30.0%	
O=C1NC(=O)C(c2ccccc2)(c2ccccc2)N1 [Phenytoin sodium]	15.02 min	90.0%	
O=C(C1CCCCC1)N1CC(=O)N2CCc3ccccc3C2C1 (stereo not shown) [Praziquantel]	12.97 min	80.0%	
CC(=O)[C@H]1CC[C@H]2[C@@H]3CCC4=CC(=O)CC[C@]4(C)[C@H]3CC[C@]12C [Progesterone]	50.02 min		PPB from literature (plasma proteins [2]): 97.0%
CC(C)NCC(O)COc1cccc2ccccc12 (stereo not shown) [Propranolol hydrochloride]	5.21 min	92.5 (90–95) %	PPB from literature (plasma proteins [2]; reported PPB values of reference compounds, ref not printed, listed as propranolol hydrochloride): 90–95%
O=c1c(O)c(-c2ccc(O)c(O)c2)oc2cc(O)cc(O)c12 [Quercetin]	0.72 min	98.0%	
CNC(=C[N+](=O)[O-])NCCSCc1ccc(CN(C)C)o1 [Ranitidine hydrochloride]	1.23 min	15.0 (12–18) %	
COC(=O)[C@H]1[C@H]2C[C@@H]3c4[nH]c5cc(OC)ccc5c4CCN3C[C@H]2C[C@@H](OC(=O)c2cc(OC)c(OC)c(OC)c2)[C@@H]1OC [Reserpine]	0.71 min	96.0%	
C[C@@H]1O[C@@H](OC[C@H]2O[C@@H](Oc3c(-c4ccc(O)c(O)c4)oc4cc(O)cc(O)c4c3=O)[C@H](O)[C@@H](O)[C@@H]2O)[C@H](O)[C@H](O)[C@H]1O [Rutoside]	13.43 min	85.0 (80–90) %	PPB from literature (plasma proteins [2]; reported PPB values of reference compounds, ref not printed, listed as rutoside): 80–90%
O=C(O)c1ccccc1O [Salicylic acid]		85.0 (80–90) %	
Nc1ccc(S(=O)(=O)Nc2ncccn2)cc1 [Sulfadiazine]	1.88 min	43.0 (38–48) %	
Cc1cc(C)nc(NS(=O)(=O)c2ccc(N)cc2)n1 [Sulfadimidine]	6.22 min	80.0%	
CCC(=O)O[C@H]1CC[C@H]2[C@@H]3CCC4=CC(=O)CC[C@]4(C)[C@H]3CC[C@]12C [Testosterone propionate]		98.0%	Retention time ([3]; human): 0.74 min
COc1cc(C(=O)O)ccc1O [Vanillic acid]		56.3%	Retention time ([3]; human, 100 µg/mL): 3.11 min
CCN(CC)CCOc1ccc(C(=C(Cl)c2ccccc2)c2ccccc2)cc1 [clomifene citrate]	> 240 min		

Reference: publication PMC3625562, “Rapid Screening of Drug-Protein Binding Using High-Performance Affinity Chromatography with Columns Containing Immobilized Human Serum Albumin” (Journal of Analytical Methods in Chemistry, 2013)
